# According to publication PMC11449996 (Clinical Pharmacokinetics, 2024):
# Read-outs that look alike come from different tables or passages of the source.
# Tests used:
# [1] = tested on: staphylococci; conditions: cited from earlier work
# [2] = tested on: Staphylococcus epidermidis; conditions: bloodstream infection isolates, 72 US and European medical centers; cited from earlier work
# [3] = tested on: MRSA; conditions: bloodstream infection isolates, 72 US and European medical centers; cited from earlier work
# [4] = cited from earlier work
# [5] = cited from earlier work; remark: listed apart in the source
# [6] = tested on: hepatic cytochromes; conditions: ref 13; cited from earlier work
# [7] = tested on: C-reactive protein (C-RP) production; format: in vivo, patients
# [8] = Population pharmacokinetic model of dalbavancin; format: in vivo, patients
# [9] = median of 1000 non-parametric bootstrap iterations
# [10] = population estimate, final PK/PD model
structure (smiles),measurement,setting,value
"CN[C@H]1C(=O)N[C@@H]2Cc3ccc(cc3)Oc3cc4cc(c3O[C@@H]3O[C@H](C(=O)O)[C@@H](O)[C@H](O)[C@H]3NC(=O)CCCCCCCCC(C)C)Oc3ccc(cc3Cl)[C@@H](O)[C@@H]3NC(=O)[C@H](NC(=O)[C@@H]4NC(=O)[C@@H](NC2=O)c2cc(cc(O)c2Cl)Oc2cc1ccc2O)c1ccc(O)c(c1)-c1c(O[C@H]2O[C@H](CO)[C@@H](O)[C@H](O)[C@@H]2O)cc(O)cc1[C@@H](C(=O)NCCCN(C)C)NC3=O [dalbavancin, Dalbavancin]","MIC90, value at which 90% of the wild-type strains are inhibited",[1],0.0625 µg/mL
same,MIC90,[2],0.06 µg/mL
same,MIC90,[3],0.03 µg/mL
same,plasma protein binding,[4]; ref 13,93–98%
same,plasma protein binding,[4]; ref 15,93%
same,terminal half-life,[5]; intravenous route,147 to 258 h
same,"CL, population estimates of previous studies","[5]; ref 5, 25, 26",0.043 to 0.057 L/h
same,"V, population estimates of previous studies","[5]; ref 5, 25, 26",15 to 15.9 L
same,administered dose excreted in urine,[5]; ref 13,up to 42%
same,drug–drug interactions,[6],no clinically relevant drug–drug interactions
same,substrate of the hepatic cytochromes,[6],not a substrate of the hepatic cytochromes
same,free IC50 on C-RP production,[7]; from total IC50 […] mg/L considering plasma protein binding of 93%,0.05 µg/mL
same,"IC50, bootstrap median",[7]; [9],0.58 µg/mL
same,"kout, bootstrap median",[7]; [9],0.0038 h^–1
same,"kout, elimination rate of C-RP concentration in plasma","[7]; population estimate, final PK/PD model, 211 C-RP plasma concentrations",0.0037 h^–1
same,clearance,"[8]; human, plasma, intravenous, 1500 mg",0.75 mL/min
same,"CL, non-renal clearance of dalbavancin, bootstrap median",[8]; [9],0.028 L/h
same,"Q, bootstrap median",[8]; [9],0.04 L/h
same,"V1, bootstrap median",[8]; [9],5.98 L
same,"V2, bootstrap median",[8]; [9],9.08 L
same,"β_eGFR, bootstrap median",[8]; [9],0.005
same,"V1, volume of distribution of the central compartment",[8]; [10],5.93 L
same,"V2, volume of distribution of the peripheral compartment",[8]; [10],9.55 L
same,"β_eGFR, coefficient of eGFR when dalbavancin CL was scaled to eGFR","[8]; population estimate, final PK/PD model, eGFR by CKD-EPI",0.0042
